Data reported in US4681879A, “11-substituted 5H,11H-pyrrolo[2,1-c][1,4]benzoxazepines as antipsychotic and analgesic agents” (Hoechst-Roussel Pharmaceuticals Inc., priority 1985, dated 1987).
Counter-ions that a name gives are not always drawn.

Legend:
apomorphine climbing = test: Antipsychotic activity, climbing mice assay (apomorphine); assay type: in vivo, mice (CK-1 male); details: Mus musculus; ip, 30 minutes prior to apomorphine 1.5 mg/kg sc
Experimental: Antipsychotic activity is determined in the climbing mice assay by methods similar to those described by P. Protais, et al., Psychopharmacol., 50, 1 (1976) and B. Costall, Eur. J. Pharmacol., 50, 39 (1978).
The subject CK-1 male mice (23-27 grams) are group-housed under standard laboratory conditions. The mice are individually placed in wire mesh stick cages (4"×4" by 10") and are allowed one hour for adaptation and exploration of the new environment. Then apomorphine is injected subcutaneously at 1.5 mg/kg, a dose causing climbing in all subjects for 30 minutes. Compounds to be tested for antipsychotic activity are injected intraperitoneally 30 minutes prior to the apomorphine challenge at a screening dose of 10 mg/kg.
For evaluation of climbing, 3 readings are taken at 10, 20 and 30 minutes after apomorphine administration according to the following scale: […]
______________________________________
4 paws on bottom (no climbing)
2 paws on the wall (rearing)
4 paws on the wall (full climb)
Mice consistently climbing before the injection of apomorphine are discarded.
With full-developed apomorphine climbing, the animals are hanging onto the cage walls, rather motionless, over longer periods of time. By contrast, climbs due to mere motor stimulation usually last only a few seconds.
The climbing scores are individually totaled (maximum score: 6 per mouse over 3 readings) and the total score of the control group (vehicle intraperitoneally-apomorphine subcutaneously) is seet to 100%. ED50 values with 95% confidence limits, calculated by a linear regression analysis of some of the compounds of this invention are presented in Table 1.

[1] = system: 2-phenyl-1,4-benzoquinone-induced writhing; test: Analgesic activity, 2-phenyl-1,4-benzoquinone-induced writhing test in mice; assay type: in vivo; details: Mus musculus, sc; read-out: ANALGESIC ACTIVITY (Phenylquinone Writhing) ED50
Excerpt: Compounds of the present invention are useful as analgesic agents due to their ability to alleviate pain in mammals. […] Exptl. Biol. Med., 95, 729 (1957)].

Compound	ED50 (apomorphine climbing) [mg/kg]	ED50 [1] [mg/kg]
O=C(CCN1CCC(C2Oc3ccccc3Cn3cccc32)CC1)c1ccc(Cl)cc1 (stereo not drawn) [1-(4-Chlorophenyl)-3-[4-]5H,11H-pyrrolo[2,1-c][1,4]benzoxazepin-11-yl]-1-piperidinyl]-1-propanone]	5.5	–
O=C(CCN1CCC(C2Oc3ccccc3Cn3cccc32)CC1)c1ccccc1.O=C(O)C(=O)O (stereo not drawn) [1-Phenyl-3-[4-[5H,11H-pyrrolo[2,1-c][1,4]benzoxazepin-11-yl]-1-piperidinyl]-1-propanone oxalate]	1.6	1.6
CCCCN1CCC(C2Oc3ccccc3Cn3cccc32)CC1 (stereo not drawn) [11-[(1-Butyl)piperidin-4-yl]-5H,11H-pyrrolo[2,1-c][1,4]benzoxazepine]	3.8	0.4
O=C(O)C(=O)O.O=c1[nH]c2ccccc2n1CCN1CCC(C2Oc3ccccc3Cn3cccc32)CC1 (stereo not drawn) [11-{1-[2-(1,3-Dihydro-2-oxo-2H-benzimidazol-1-yl)ethyl]piperidin-4-yl}-5H,11H-pyrrolo[2,1-c][1,4]benzoxazepine oxalate]	3.2	0.9
COc1cccc(CCN2CCC(C3Oc4ccccc4Cn4cccc43)CC2)c1OC.O=C(O)/C=C/C(=O)O (stereo not drawn) [11-{1-[2-(2,3-Dimethoxyphenyl)ethyl]piperidin-4-yl}-5H,11H-pyrrolo[2,1-c][1,4]benzoxazepine fumarate]	3	–
c1csc(CCN2CCC(C3Oc4ccccc4Cn4cccc43)CC2)c1 (stereo not drawn) [11-{1-[2-(2-Thienyl)ethyl]piperidin-4-yl}-5H,11H-pyrrolo[2,1-c][1,4benzoxazepine]	1.8	–
COc1ccc(CCN2CCC(C3Oc4ccccc4Cn4cccc43)CC2)cc1OC (stereo not drawn) [11-{1-[2-(3,4-Dimethoxyphenyl)ethyl]piperidin-4-yl}-5H,11H-pyrrolo[2,1-c][1,4]benzoxazepine]	0.3	0.1
COc1cccc(CCN2CCC(C3Oc4ccccc4Cn4cccc43)CC2)c1 (stereo not drawn) [11-{1-[2-(3-Methoxyphenyl)ethyl]piperidin-4-yl}-5H,11H-pyrrolo[2,1-c][1,4]benzoxazepine]	0.9	–
Clc1ccc(CCN2CCC(C3Oc4ccccc4Cn4cccc43)CC2)cc1 (stereo not drawn) [11-{1-[2-(4-Chlorophenylethyl)]piperidin-4-yl}-5H,11H-pyrrolo[2,1-c][1,4]benzoxazepine]	2.1	–
CN(C)c1ccc(CCN2CCC(C3Oc4ccccc4Cn4cccc43)CC2)cc1 (stereo not drawn) [11-{1-[2-(4-Dimethylaminophenylethyl)]piperidin-4-yl}-5H,11H-pyrrolo[2,1-c][1,4]benzoxazepine]	1.2	0.4
CCOc1ccc(CCN2CCC(C3Oc4ccccc4Cn4cccc43)CC2)cc1 (stereo not drawn) [11-{1-[2-(4-Ethoxyphenylethyl)]piperidin-4-yl}-5H,11H-pyrrolo[2,1-c][1,4]benzoxaxepine]	1.3	1.9
Fc1ccc(CCN2CCC(C3Oc4ccccc4Cn4cccc43)CC2)cc1.O=C(O)C(=O)O (stereo not drawn) [11-{1-[2-(4-Fluorophenyl)ethyl]piperidin-4-yl}-5H,11H-pyrrolo[2,1-c][1,4]benzoxazepine oxalate]	3.1	–
Oc1ccc(CCN2CCC(C3Oc4ccccc4Cn4cccc43)CC2)cc1 (stereo not drawn) [11-{1-[2-(4-Hydroxyphenyl)ethyl]piperidin-4-yl}-5H,11H-pyrrolo[2,1-c][1,4]benzoxazepine]	0.3	–
COc1ccc(CCN2CCC(C3Oc4ccccc4Cn4cccc43)CC2)cc1.O=C(O)C(=O)O (stereo not drawn) [11-{1-[2-(4-Methoxyphenyl)ethyl]piperidin-4-yl}-5H,11H-pyrrolo[2,1-c][1,4]benzoxazepine oxalate]	0.3	0.3
Cc1ccc(CCN2CCC(C3Oc4ccccc4Cn4cccc43)CC2)cc1 (stereo not drawn) [11-{1-[2-(4-Methylphenyl)ethyl]piperidin-4-yl}-5H,11H-pyrrolo[2,1-c][1,4]benzoxazepine]	1.2	–
O=[N+]([O-])c1ccc(CCN2CCC(C3Oc4ccccc4Cn4cccc43)CC2)cc1 (stereo not drawn) [11-{1-[2-(4-Nitrophenylethyl)]piperidin-4-yl}-5H,11H-pyrrolo[2,1-c][1,4]benzoxazepine]	3.5	4.1
O=C(O)C(=O)O.c1ccc(CCN2CCC(C3Oc4ccccc4Cn4cccc43)CC2)cc1 (stereo not drawn) [11-{1-[2-(Phenyl)ethyl]piperidin-4-yl}-5H,11H-pyrrolo[2,1-c][1,4]benzoxazepine oxalate]	3.1	–
O=C(O)C(=O)O.O=c1[nH]c2ccccc2n1CCCN1CCC(C2Oc3ccccc3Cn3cccc32)CC1 (stereo not drawn) [11-{1-[3-(1,3-Dihydro-2-oxo-2H-benzimidazol-1-yl)propyl]piperidin-4-yl}-5H,11H-pyrrolo[2,1-c][1,4]benzoxazepine oxalate]	0.7	0.3
Cc1[nH]c2ccccc2c1CCCN1CCC(C2Oc3ccccc3Cn3cccc32)CC1.O=C(O)C(=O)O (stereo not drawn) [11-{1-[3-(2-Methylindol-3-yl)propyl]piperidin-4-yl}-5H,11H-pyrrolo[2,1-c][1,4]benzoxazepine oxalate]	2.3	–
Fc1ccc2c(CCCN3CCC(C4Oc5ccccc5Cn5cccc54)CC3)noc2c1.O=C(O)C(=O)O (stereo not drawn) [11-{1-[3-(6-Fluoro-1,2-benzisoxazol-3-yl)propyl]piperidin-4-yl}-5H,11H-pyrrolo[2,1-c][1,4]benzoxazepine oxalate]	2.1	5.1
c1ccc(OCCCN2CCC(C3Oc4ccccc4Cn4cccc43)CC2)cc1 (stereo not drawn) [11-{1-[3-(Phenoxy)propyl]piperidin-4-yl}-5H,11H-pyrrolo[2,1-c][1,4]benzoxazepine]	1.2	4.2
c1ccc(CCCN2CCC(C3Oc4ccccc4Cn4cccc43)CC2)cc1 (stereo not drawn) [11-{1-[3-(Phenyl)propyl]piperidin-4-yl}-5H,11H-pyrrolo[2,1-c][1,4[benzoxazepine oxalate]	2	–
